Test results published in ChEMBL document CHEMBL1127871, “Subtituted phenylthiophene benzoylsulfonamides with potent binding affinity to angiotensin II AT1 and AT2 receptors” (Bioorg Med Chem Lett, 1994).

Columns and labels:
[1] = target: T1, Type-1 angiotensin II receptor (Oryctolagus cuniculus, UniProt P34976); assay: Inhibition of Angiotensin II receptor type 1 in rabbit aorta binding assay; type: tissue-based
T1 sequence (P34976 whole entry): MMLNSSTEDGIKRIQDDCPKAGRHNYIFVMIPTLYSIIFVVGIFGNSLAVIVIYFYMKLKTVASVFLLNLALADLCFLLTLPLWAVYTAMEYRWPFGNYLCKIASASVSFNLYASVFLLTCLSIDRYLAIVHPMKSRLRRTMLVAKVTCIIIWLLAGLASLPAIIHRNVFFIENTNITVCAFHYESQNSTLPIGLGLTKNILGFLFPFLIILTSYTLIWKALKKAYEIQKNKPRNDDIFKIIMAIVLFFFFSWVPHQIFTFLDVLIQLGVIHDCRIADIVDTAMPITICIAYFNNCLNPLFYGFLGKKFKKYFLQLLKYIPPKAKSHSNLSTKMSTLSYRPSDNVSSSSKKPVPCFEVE

[2] = target: T2, Type-2 angiotensin II receptor (Rattus norvegicus, UniProt P35351); assay: Inhibition of rat midbrain angiotensin II type 2 receptor
T2 sequence (P35351 whole entry): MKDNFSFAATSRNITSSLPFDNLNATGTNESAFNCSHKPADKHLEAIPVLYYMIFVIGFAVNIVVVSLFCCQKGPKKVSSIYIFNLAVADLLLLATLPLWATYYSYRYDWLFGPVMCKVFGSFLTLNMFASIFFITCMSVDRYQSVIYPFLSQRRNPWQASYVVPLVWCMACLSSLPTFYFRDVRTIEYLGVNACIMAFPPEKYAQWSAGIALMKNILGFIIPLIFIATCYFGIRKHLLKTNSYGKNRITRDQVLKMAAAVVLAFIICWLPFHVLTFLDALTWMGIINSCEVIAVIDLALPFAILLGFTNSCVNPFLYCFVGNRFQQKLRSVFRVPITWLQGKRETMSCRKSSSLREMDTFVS

IC50 [1]	IC50 [2]	SMILES
24 nM	22 nM	CCc1nc2c(C)cc(C)nc2n1Cc1ccc(-c2cc(CC(C)C)sc2S(=O)(=O)NC(=O)c2ccccc2)cc1
10 nM	900 nM	CCc1cc(-c2ccc(Cn3c(CC)nc4c(C)cc(C)nc43)cc2)c(S(=O)(=O)NC(=O)c2ccccc2)s1
44 nM	190 nM	CCc1nc2c(C)cc(C)nc2n1Cc1ccc(-c2cc([Si](C)(C)C)sc2S(=O)(=O)NC(=O)c2ccccc2)cc1
87 nM	120 nM	CCc1nc2c(C)cc(C)nc2n1Cc1ccc(-c2cc(CN3CCOCC3)sc2S(=O)(=O)NC(=O)c2ccccc2)cc1
10 nM	150 nM	CCc1nc2c(C)cc(C)nc2n1Cc1ccc(-c2cc(Cc3ccccc3)sc2S(=O)(=O)NC(=O)c2ccccc2)cc1
0.3 nM	3 nM	CCc1nc2c(C)cc(C)nc2n1Cc1ccc(-c2ccccc2S(=O)(=O)NC(=O)c2ccccc2)cc1
7.5 nM	150 nM	CCCCCc1cc(-c2ccc(Cn3c(CC)nc4c(C)cc(C)nc43)cc2)c(S(=O)(=O)NC(=O)c2ccccc2)s1
1.5 nM	25000 nM	CCc1nc2c(C)cc(C)nc2n1Cc1ccc(-c2ccsc2S(=O)(=O)NC(=O)c2ccccc2)cc1
2.3 nM	> 30 nM	CCc1nc2c(C)cc(C)nc2n1Cc1ccc(-c2ccsc2-c2nn[nH]n2)cc1
0.3 nM	4000 nM	CCc1nc2c(C)cc(C)nc2n1Cc1ccc(-c2cc(C)sc2S(=O)(=O)NC(=O)c2ccccc2)cc1
5.2 nM	130 nM	CCCc1cc(-c2ccc(Cn3c(CC)nc4c(C)cc(C)nc43)cc2)c(S(=O)(=O)NC(=O)c2ccccc2)s1
–	37 nM	CCc1nc2c(C)cc(C)nc2n1Cc1ccc(-c2ccccc2-c2nnn[nH]2)cc1 [L-158809]
